pIC50: −log10 of the molar value.
Molecular target: human NaV 1.8 (Homo sapiens, UniProt Q9Y5Y9)
Assay: E-VIPR Assay for Detecting and Measuring NaV Inhibition Properties
Format: cell-based
Conditions: HEK cells expressing a truncated form of human NaV 1.8; HS = human serum; read-out: EVIPR HS IC50
Text: E-VIPR Assay for Detecting and Measuring NaV Inhibition Properties
Sodium ion channels are voltage-dependent proteins that can be activated by inducing membrane voltage changes by applying electric fields. The electrical stimulation instrument and methods of use, referred to as E-VIPR, are described in International Publication No. WO 2002/008748 A3 and C.-J. Huang et al. Characterization of voltage-gated sodium channel blockers by electrical stimulation and fluorescence detection of membrane potential, 24 Nature Biotech. 439-46 (2006), both of which are incorporated by reference in their entirety. The instrument comprises a microtiter plate handler, an optical system for exciting the coumarin dye while simultaneously recording the coumarin and oxonol emissions, a waveform generator, a current- or voltage-controlled amplifier, and parallel electrode pairs that are inserted into assay plate wells. Under integrated computer control, this instrument passes user-programmed electrical stimulus protocols to cells within the wells of the microtiter plate.
16-20 hours prior to running the assay on E-VIPR, HEK cells expressing a truncated form of human NaV 1.8 with full channel activity were seeded into microtiter 384-well plates, pre-coated with matrigel, at a density of 25,000 cells per well. 2.5-5% KIR2.1 Bacmam virus was added to the final cell suspension before seeding into cell plates. HEK cells were grown in Dulbecco's Modified Eagle's Medium (DMEM) supplemented with 10% FBS (Fetal Bovine Serum, qualified; Sigma #F4135), 1% NEAA (Non-Essential Amino Acids, Gibco #11140), 1% HEPES (Gibco #15630), 1% Pen-Strep (Penicillin-Streptomycin; Gibco #15140) and 5 μg/ml Blasticidin (Gibco #R210-01). Cells were expanded in vented cap cell culture flasks, with 90-95% humidity and 5% CO2.
Reagents and Stock Solutions:
• 100 mg/mL Pluronic F-127 (Sigma #P2443), in dry DMSO • Compound Plates: Corning 384-well Polypropylene Round Bottom #3656 • Cell Plates: 384-well tissue culture treated plates (Greiner #781091-1B) • 2.5-5% KIR 2.1 Bacmam virus (produced in-house), prepared as described in Section 3.3 of J. A. Fornwald et al., Gene Expression in Mammalian Cells Using BacMam, a Modified Baculovirus System, 1350 Methods in Molecular Biology 95-116 (2016), the entire contents of which are incorporated by reference. The concentration used can be dependent on viral titer of each batch. • 5 mM DiSBAC6 (3), a voltage sensitive oxonol acceptor (CAS number 169211-44-3; 5-[3-(1,3-dihexylhexahydro-4,6-dioxo-2-thioxo-5-pyrimidinyl)-2-propen-1-ylidene]-1,3-dihexyldihydro-2-thioxo-4,6(1H,5H)-pyrimidinedione), in dry DMSO. The preparation of DiSBAC6 (3) is analogous to that of DiSBAC4 (3) as described in Voltage Sensing by Fluorescence Resonance Energy Transfer in Single Cells, Gonzalez, J. E. and Tsien, R. Y. (1995) Biophys. J. 69, 1272-1280. • 5 mM CC2-DMPE, a commercially available membrane-bound coumarin phospholipid FRET donor (ThermoFisher Scientific catalog number K1017, CAS number 393782-57-5; tetradecanoic acid, 1,1′-[(1R)-1-[8-(6-chloro-7-hydroxy-2-oxo-2H-1-benzopyran-3-yl)-3-hydroxy-3-oxido-8-oxo-2,4-dioxa-7-aza-3-phosphaoct-1-yl]-1,2-ethanediyl] ester) was prepared in dry DMSO. […]

Chain of human NaV 1.8 (Q9Y5Y9 whole entry, looked up): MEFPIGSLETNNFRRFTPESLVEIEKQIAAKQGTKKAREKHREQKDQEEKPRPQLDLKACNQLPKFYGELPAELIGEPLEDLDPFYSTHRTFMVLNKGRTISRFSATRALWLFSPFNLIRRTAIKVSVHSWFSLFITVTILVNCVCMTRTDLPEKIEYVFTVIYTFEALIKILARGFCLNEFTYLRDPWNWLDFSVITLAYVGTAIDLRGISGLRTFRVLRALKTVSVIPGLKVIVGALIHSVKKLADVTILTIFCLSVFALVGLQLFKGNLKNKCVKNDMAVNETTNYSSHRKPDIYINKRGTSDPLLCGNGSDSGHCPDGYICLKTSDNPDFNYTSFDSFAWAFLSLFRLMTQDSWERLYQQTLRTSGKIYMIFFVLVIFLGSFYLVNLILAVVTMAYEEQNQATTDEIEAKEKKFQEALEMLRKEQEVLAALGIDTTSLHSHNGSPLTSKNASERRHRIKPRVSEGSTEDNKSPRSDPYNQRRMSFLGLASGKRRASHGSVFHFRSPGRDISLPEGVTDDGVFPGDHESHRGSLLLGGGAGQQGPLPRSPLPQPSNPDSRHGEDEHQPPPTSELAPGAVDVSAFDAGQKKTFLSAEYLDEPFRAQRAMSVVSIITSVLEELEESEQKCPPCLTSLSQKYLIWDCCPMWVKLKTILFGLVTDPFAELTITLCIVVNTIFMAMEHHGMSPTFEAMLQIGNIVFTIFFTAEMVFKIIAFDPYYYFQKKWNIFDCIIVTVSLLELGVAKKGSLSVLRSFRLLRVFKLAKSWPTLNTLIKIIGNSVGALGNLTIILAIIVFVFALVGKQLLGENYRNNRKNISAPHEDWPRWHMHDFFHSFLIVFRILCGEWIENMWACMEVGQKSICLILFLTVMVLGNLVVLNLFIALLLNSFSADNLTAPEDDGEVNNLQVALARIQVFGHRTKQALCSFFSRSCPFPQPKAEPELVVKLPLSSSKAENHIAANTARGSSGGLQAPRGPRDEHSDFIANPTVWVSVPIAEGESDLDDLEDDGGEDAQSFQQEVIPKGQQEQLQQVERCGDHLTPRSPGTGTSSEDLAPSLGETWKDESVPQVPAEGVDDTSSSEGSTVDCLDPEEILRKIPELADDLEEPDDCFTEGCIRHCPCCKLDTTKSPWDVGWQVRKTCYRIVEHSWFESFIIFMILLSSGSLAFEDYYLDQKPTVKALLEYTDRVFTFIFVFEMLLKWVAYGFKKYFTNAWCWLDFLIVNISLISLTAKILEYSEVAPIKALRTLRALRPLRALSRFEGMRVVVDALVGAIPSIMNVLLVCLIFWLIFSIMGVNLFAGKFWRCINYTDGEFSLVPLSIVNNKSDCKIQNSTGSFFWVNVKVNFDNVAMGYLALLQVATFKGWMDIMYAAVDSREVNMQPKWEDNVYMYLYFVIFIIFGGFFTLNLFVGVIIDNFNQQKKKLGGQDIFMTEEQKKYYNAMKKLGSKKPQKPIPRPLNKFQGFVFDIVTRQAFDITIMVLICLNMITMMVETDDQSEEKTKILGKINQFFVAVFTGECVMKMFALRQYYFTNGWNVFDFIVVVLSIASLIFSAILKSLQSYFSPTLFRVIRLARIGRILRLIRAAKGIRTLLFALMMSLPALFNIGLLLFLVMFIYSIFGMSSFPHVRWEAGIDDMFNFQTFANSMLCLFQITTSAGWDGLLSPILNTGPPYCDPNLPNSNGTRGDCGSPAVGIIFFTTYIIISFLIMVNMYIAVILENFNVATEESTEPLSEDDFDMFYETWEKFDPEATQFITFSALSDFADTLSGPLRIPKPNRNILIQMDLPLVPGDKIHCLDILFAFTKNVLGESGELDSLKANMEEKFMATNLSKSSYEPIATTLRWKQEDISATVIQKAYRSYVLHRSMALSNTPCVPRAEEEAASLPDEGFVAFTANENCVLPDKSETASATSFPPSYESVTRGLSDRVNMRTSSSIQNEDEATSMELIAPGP

| SMILES | pIC50 |
| --- | --- |
| [2H]C([2H])([2H])Oc1cc(OC(F)(F)F)ccc1Oc1cc(C(F)(F)F)c(F)cc1C(=O)Nc1ccnc(NC(=O)OC(C)(C)C)c1 [Compound 7, tert-butyl N-[4-[[5-fluoro-2-[2-(trideuteriomethoxy)-4-(trifluoromethoxy)phenoxy]-4-(trifluoromethyl)benzoyl]amino]-2-pyridyl]carbamate] | ≤ 6.00 |
| [2H]C([2H])([2H])Oc1cc(OC(F)(F)F)ccc1Oc1ccc(C(F)(F)F)c(F)c1C(=O)Nc1ccc(C(=O)OC)nc1 [Compound 11, methyl 5-[[2-fluoro-6-[2-(trideuteriomethoxy)-4-(trifluoromethoxy)phenoxy]-3-(trifluoromethyl)benzoyl]amino]pyridine-2-carboxylate] | 6.30 to 7.00 |
| [2H]C([2H])([2H])Oc1cc(OC(F)(F)F)ccc1Oc1cc(C(F)(F)F)c(F)cc1C(=O)Nc1ccnc(C(=O)OC)c1 [Compound 6, methyl 4-[[5-fluoro-2-[2-(trideuteriomethoxy)-4-(trifluoromethoxy)phenoxy]-4-(trifluoromethyl)benzoyl]amino]pyridine-2-carboxylate] | 6.30 to 7.00 |
| COC(=O)c1ccnc(NC(=O)c2c(Oc3ccc(OC(F)(F)F)c(F)c3OC)ccc(C(F)(F)F)c2C)c1 [Compound 24, Methyl 2-[[6-[3-fluoro-2-methoxy-4-(trifluoromethoxy)phenoxy]-2-methyl-3-(trifluoromethyl)benzoyl]amino]pyridine-4-carboxylate] | ≤ 6.00 |
| COC(=O)c1ccc(NC(=O)c2c(Oc3ccc(OC(F)(F)F)cc3)ccc(C(F)(F)F)c2F)cn1 [Compound 13, methyl 5-[[2-fluoro-6-[4-(trifluoromethoxy)phenoxy]-3-(trifluoromethyl)benzoyl]amino]pyridine-2-carboxylate] | ≤ 6.00 |
| COC(=O)c1nccc(NC(=O)c2c(Oc3ccc(OC(F)(F)F)cc3OC)ccc(C(F)(F)F)c2F)c1F [Compound 29, methyl 3-fluoro-4-(2-fluoro-6-(2-methoxy-4-(trifluoromethoxy)phenoxy)-3-(trifluoromethyl)benzamido)picolinate] | 6.00 to 6.30 |
| COC(=O)c1ccnc(NC(=O)c2c(Oc3ccc(OC(F)(F)F)c(F)c3OC)ccc(C(F)(F)F)c2F)c1 [Compound 23, Methyl 2-[[2-fluoro-6-[3-fluoro-2-methoxy-4-(trifluoromethoxy)phenoxy]-3-(trifluoromethyl)benzoyl]amino]pyridine-4-carboxylate] | 6.00 to 6.30 |
| COC(=O)c1ccc(NC(=O)c2c(Oc3ccc(OC(F)(F)F)cc3OC)ccc(C(F)(F)F)c2F)cn1 [Compound 15, Methyl 5-[[2-fluoro-6-[2-methoxy-4-(trifluoromethoxy)phenoxy]-3-(trifluoromethyl)benzoyl]amino]pyridine-2-carboxylate] | 6.30 to 7.00 |
| COC(=O)c1cc(NC(=O)c2c(Oc3ccc(OC(F)(F)F)c(F)c3OC)ccc(C(F)(F)F)c2F)c(C2CC2)cn1 [Compound 27, methyl 5-cyclopropyl-4-(2-fluoro-6-(3-fluoro-2-methoxy-4-(trifluoromethoxy)phenoxy)-3-(trifluoromethyl)benzamido)picolinate] | ≤ 6.00 |
| COC(=O)c1nccc(NC(=O)c2c(Oc3ccc(OC(F)(F)F)c(F)c3OC)ccc(C(F)(F)F)c2C)c1C [Compound 32, methyl 4-(6-(3-fluoro-2-methoxy-4-(trifluoromethoxy)phenoxy)-2-methyl-3-(trifluoromethyl)benzamido)-3-methylpicolinate] | ≤ 6.00 |
| COC(=O)c1cc(NC(=O)c2c(Oc3ccc(OC(F)(F)F)cc3OC)ccc(C(F)(F)F)c2F)c(C2CC2)cn1 [Compound 26, methyl 5-cyclopropyl-4-(2-fluoro-6-(2-methoxy-4-(trifluoromethoxy)phenoxy)-3-(trifluoromethyl)benzamido)picolinate] | ≤ 6.00 |
| COC(=O)c1cc(NC(=O)c2c(Oc3ccc(OC(F)(F)F)c(F)c3Cl)ccc(C(F)(F)F)c2F)c(C)cn1 [Compound 20, Methyl 4-[[6-[2-chloro-3-fluoro-4-(trifluoromethoxy)phenoxy]-2-fluoro-3-(trifluoromethyl)benzoyl]amino]-5-methyl-pyridine-2-carboxylate] | > 7.00 |
| [2H]C([2H])([2H])Oc1cc(OC(F)(F)F)ccc1Oc1ccc(C(F)(F)F)cc1C(=O)Nc1ccnc(NC(=O)OC(C)(C)C)c1 [Compound 9, tert-butyl N-[4-[[2-[2-(trideuteriomethoxy)-4-(trifluoromethoxy)phenoxy]-5-(trifluoromethyl)benzoyl]amino]-2-pyridyl]carbamate] | ≤ 6.00 |
| COC(=O)c1nccc(NC(=O)c2c(Oc3ccc(OC(F)(F)F)cc3OC)ccc(C(F)(F)F)c2C)c1C [Compound 33, methyl 4-(6-(2-methoxy-4-(trifluoromethoxy)phenoxy)-2-methyl-3-(trifluoromethyl)benzamido)-3-methylpicolinate] | ≤ 6.00 |
| COC(=O)c1ccc(NC(=O)c2c(Oc3ccc(OC(F)(F)F)c(F)c3OC)ccc(C(F)(F)F)c2F)cn1 [Compound 14, Methyl 5-[[2-fluoro-6-[3-fluoro-2-methoxy-4-(trifluoromethoxy)phenoxy]-3-(trifluoromethyl)benzoyl]amino]pyridine-2-carboxylate] | 6.30 to 7.00 |
| COC(=O)c1cc(NC(=O)c2c(Oc3ccc(OC(F)(F)F)cc3Cl)ccc(C3CC3)c2C)c(C)cn1 [Compound 22, Methyl 4-[[6-[2-chloro-4-(trifluoromethoxy)phenoxy]-3-cyclopropyl-2-methyl-benzoyl]amino]-5-methyl-pyridine-2-carboxylate] | ≤ 6.00 |
| COC(=O)c1nccc(NC(=O)c2c(Oc3ccc(OC(F)(F)F)c(F)c3OC)ccc(C(F)(F)F)c2F)c1C [Compound 34, methyl 4-(2-fluoro-6-(3-fluoro-2-methoxy-4-(trifluoromethoxy)phenoxy)-3-(trifluoromethyl)benzamido)-3-methylpicolinate] | ≤ 6.00 |
| COC(=O)c1cc(NC(=O)c2c(Oc3ccc(OC(F)(F)F)cc3)ccc(C(F)(F)F)c2F)ccn1 [Compound 3, methyl 4-[[2-fluoro-6-[4-(trifluoromethoxy)phenoxy]-3-(trifluoromethyl)benzoyl]amino]pyridine-2-carboxylate] | 6.30 to 7.00 |
| [2H]C([2H])([2H])Oc1cc(OC(F)(F)F)ccc1Oc1ccc(C(F)(F)F)cc1C(=O)Nc1ccc(C(=O)OC)nc1 [Compound 12, methyl 5-[[2-[2-(trideuteriomethoxy)-4-(trifluoromethoxy)phenoxy]-5-(trifluoromethyl)benzoyl]amino]pyridine-2-carboxylate] | ≤ 6.00 |
| COC(=O)c1cc(NC(=O)c2c(Oc3ccc(OC(F)(F)F)c(F)c3OC)ccc(C(F)(F)F)c2C)c(C2CC2)cn1 [Compound 28, methyl 5-cyclopropyl-4-(6-(3-fluoro-2-methoxy-4-(trifluoromethoxy)phenoxy)-2-methyl-3-(trifluoromethyl)benzamido)picolinate] | ≤ 6.00 |
| COC(=O)c1cc(NC(=O)c2c(Oc3ccc(F)c(F)c3C)ccc(C(F)(F)F)c2C)c(C)cn1 [Compound 18, Methyl 4-[[6-(3,4-difluoro-2-methyl-phenoxy)-2-methyl-3-(trifluoromethyl)benzoyl]amino]-5-methyl-pyridine-2-carboxylate] | 6.00 to 6.30 |
| COC(=O)c1cc(NC(=O)c2c(Oc3ccc(OC(F)(F)F)c(F)c3C)ccc(C(F)(F)F)c2F)c(C)cn1 [Compound 17, Methyl 4-[[2-fluoro-6-[3-fluoro-2-methyl-4-(trifluoromethoxy)phenoxy]-3-(trifluoromethyl)benzoyl]amino]-5-methyl-pyridine-2-carboxylate] | > 7.00 |
| COC(=O)c1cc(NC(=O)c2c(Oc3ccc(OC(F)(F)F)cc3OC)ccc(C(F)(F)F)c2O)ccn1 [Compound 25, Methyl 4-[[2-hydroxy-6-[2-methoxy-4-(trifluoromethoxy)phenoxy]-3-(trifluoromethyl)benzoyl]amino]pyridine-2-carboxylate] | 6.30 to 7.00 |

Reference: US12440481B2, “Esters and carbamates as modulators of sodium channels” (VERTEX PHARMACEUTICALS INCORPORATED, priority 2019, dated 2025)
